Each compound was assayed against T1, porcine brain tubulin (Sus scrofa, UniProt P02550+P02554) (assay: Fluorescence-based tubulin polymerization assay). Settings: compared to control (DMSO); 37° C.; FIG. 1 and FIG. 2.
T1 construct: purchased Cytoskeleton; host or cells: porcine brain tissue
T1 sequence (P02550 whole entry): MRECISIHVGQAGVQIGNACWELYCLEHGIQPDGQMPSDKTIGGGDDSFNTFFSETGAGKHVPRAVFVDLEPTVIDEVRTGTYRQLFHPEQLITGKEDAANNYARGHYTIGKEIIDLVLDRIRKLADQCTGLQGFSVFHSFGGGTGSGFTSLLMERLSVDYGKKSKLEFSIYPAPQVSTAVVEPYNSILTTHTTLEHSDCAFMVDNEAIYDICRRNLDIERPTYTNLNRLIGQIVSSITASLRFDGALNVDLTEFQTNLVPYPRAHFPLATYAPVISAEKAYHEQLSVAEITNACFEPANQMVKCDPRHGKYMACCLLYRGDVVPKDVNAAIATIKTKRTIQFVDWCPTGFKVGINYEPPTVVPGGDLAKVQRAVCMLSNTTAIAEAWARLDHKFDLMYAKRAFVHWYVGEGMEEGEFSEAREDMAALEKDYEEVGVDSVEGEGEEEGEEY
T1 sequence (P02554 whole entry): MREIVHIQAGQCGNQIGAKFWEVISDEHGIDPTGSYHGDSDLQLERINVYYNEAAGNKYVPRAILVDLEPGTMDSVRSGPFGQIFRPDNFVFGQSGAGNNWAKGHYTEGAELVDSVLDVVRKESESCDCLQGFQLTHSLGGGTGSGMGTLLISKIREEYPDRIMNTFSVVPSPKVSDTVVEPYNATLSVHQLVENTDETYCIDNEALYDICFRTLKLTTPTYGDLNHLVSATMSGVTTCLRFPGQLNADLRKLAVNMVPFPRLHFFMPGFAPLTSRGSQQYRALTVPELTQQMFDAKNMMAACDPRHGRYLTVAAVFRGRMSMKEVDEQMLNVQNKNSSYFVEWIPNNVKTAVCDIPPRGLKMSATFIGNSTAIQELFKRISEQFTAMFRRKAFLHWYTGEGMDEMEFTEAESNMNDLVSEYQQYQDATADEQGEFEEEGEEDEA
Type: biochemical
Method: Fluorescence-based tubulin polymerization assay was conducted in a final volume of 55 μL using the Tubulin Polymerization Assay kit (Cytoskeleton, Colo., USA) as per manufacturer's instructions. Briefly, porcine brain tubulin was incubated with test compounds at 37° C. and fluorescence was measured using with Tecan M200 PRO+ microplate reader (Tecan, Switzerland) at 355 nm excitation and 460 nm emission.
With O=C(CCCc1ccc(-c2ccccc2F)cc1)Nc1cccnc1 [WJA69b, 4-(2′-fluoro-[1,1′-biphenyl]-4-yl)-N-(pyridin-3-yl)butanamide] the “effect on tubulin polymerization” value was “inhibited tubulin polymerization”.
For O=C(NCCCc1ccc(-c2ccccc2F)cc1)c1cccnc1 [WJA88, N-(3-(2′-Fluoro-[1,1′-Biphenyl]-4-yl)Propyl)Nicotinamide], the “effect on tubulin polymerization” value was “inhibited tubulin polymerization”.
In the case of CC[C@]1(O)C[C@@H]2CN(CCc3c([nH]c4ccccc34)[C@@](C(=O)OC)(c3cc4c(cc3OC)N(C)[C@H]3[C@@](O)(C(=O)OC)[C@H](OC(C)=O)[C@]5(CC)C=CCN6CC[C@]43[C@@H]65)C2)C1 [vinblastine], the “effect on tubulin polymerization” value was “inhibited tubulin polymerization”.
For CC(=O)O[C@H]1C(=O)[C@@]2(C)[C@H]([C@H](OC(=O)c3ccccc3)[C@]3(O)C[C@H](OC(=O)[C@H](O)[C@@H](NC(=O)c4ccccc4)c4ccccc4)C(C)=C1C3(C)C)[C@]1(OC(C)=O)CO[C@@H]1C[C@@H]2O [paclitaxel], the “effect on tubulin polymerization” value was “enhanced tubulin polymerization”.
